Assay results from patent publication US10266497B2 (ABIDE THERAPEUTICS, INC., priority 2017, dated 2019).

Tests used:
FAAH [1] = target: T1, FAAH (Homo sapiens, UniProt O00519); experiment: In vitro competitive activity-based protein profiling, FAAH, human; settings: for inhibition at 1 µM: read-out: FAAH % inh. 1 μM (human)
T1 sequence (O00519 1-579): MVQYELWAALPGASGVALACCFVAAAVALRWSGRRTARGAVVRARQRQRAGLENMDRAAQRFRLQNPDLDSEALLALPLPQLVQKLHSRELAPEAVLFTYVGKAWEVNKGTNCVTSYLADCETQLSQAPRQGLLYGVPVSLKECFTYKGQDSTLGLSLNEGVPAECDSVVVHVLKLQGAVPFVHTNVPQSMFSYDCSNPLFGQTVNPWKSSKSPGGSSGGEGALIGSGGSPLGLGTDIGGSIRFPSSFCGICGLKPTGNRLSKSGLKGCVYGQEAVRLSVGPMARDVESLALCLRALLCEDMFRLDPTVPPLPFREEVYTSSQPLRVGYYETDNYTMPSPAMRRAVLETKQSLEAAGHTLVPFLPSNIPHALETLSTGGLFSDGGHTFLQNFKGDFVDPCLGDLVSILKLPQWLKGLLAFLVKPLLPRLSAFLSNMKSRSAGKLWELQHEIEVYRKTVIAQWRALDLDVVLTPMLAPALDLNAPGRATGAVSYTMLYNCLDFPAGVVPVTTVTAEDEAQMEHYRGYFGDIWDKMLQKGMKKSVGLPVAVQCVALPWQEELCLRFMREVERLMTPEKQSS

MAGL [2] = target: T2, MAGL (Mus musculus, UniProt O35678); experiment: In vitro competitive activity-based protein profiling, MAGL, mouse; settings: read-out: MAGL % inh. 1 μM (mouse)
T2 sequence (O35678 1-303): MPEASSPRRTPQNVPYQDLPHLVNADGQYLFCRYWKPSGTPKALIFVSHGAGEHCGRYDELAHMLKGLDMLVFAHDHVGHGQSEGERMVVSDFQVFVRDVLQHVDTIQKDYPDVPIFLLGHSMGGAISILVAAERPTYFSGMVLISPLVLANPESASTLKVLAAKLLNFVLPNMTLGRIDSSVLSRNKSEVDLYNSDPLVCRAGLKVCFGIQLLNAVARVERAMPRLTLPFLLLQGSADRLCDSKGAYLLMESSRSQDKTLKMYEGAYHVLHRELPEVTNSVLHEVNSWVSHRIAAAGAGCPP

MAGL [3] = target: T3, MAGL (Homo sapiens, UniProt Q99685); experiment: In vitro competitive activity-based protein profiling, MAGL, human; settings: read-out: MAGL % inh. 1 μM (human)
T3 sequence (Q99685 1-303): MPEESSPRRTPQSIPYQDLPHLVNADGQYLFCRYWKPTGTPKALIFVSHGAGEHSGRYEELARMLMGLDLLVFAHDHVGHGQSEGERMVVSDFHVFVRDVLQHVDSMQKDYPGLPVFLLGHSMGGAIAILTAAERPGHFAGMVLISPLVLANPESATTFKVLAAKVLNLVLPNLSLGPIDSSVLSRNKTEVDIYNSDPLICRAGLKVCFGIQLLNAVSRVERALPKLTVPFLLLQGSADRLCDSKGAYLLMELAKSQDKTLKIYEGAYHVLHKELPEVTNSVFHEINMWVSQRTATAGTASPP
Protocol: Biological Evaluation In Vitro Competitive Activity-Based Protein Profiling.
Proteomes (mouse brain membrane fraction for mouse assays; human prefrontal cortex membrane fractions for human assays) (50 mL, 1.0 mg/mL total protein concentration) were preincubated with varying concentrations of inhibitors at 37° C. After 30 min, FP-Rh (1.0 mL, 50 mM in DMSO) was added and the mixture was incubated for another 30 min at 37° C. Reactions were quenched with SDS loading buffer (15 μL—4λ) and run on SDS-PAGE.

FAAH [4] = target: T4, FAAH (Mus musculus, UniProt O08914); experiment: In vitro competitive activity-based protein profiling, FAAH, mouse; settings: read-out: FAAH % inh. 1 μM (mouse)
T4 sequence (O08914 1-579): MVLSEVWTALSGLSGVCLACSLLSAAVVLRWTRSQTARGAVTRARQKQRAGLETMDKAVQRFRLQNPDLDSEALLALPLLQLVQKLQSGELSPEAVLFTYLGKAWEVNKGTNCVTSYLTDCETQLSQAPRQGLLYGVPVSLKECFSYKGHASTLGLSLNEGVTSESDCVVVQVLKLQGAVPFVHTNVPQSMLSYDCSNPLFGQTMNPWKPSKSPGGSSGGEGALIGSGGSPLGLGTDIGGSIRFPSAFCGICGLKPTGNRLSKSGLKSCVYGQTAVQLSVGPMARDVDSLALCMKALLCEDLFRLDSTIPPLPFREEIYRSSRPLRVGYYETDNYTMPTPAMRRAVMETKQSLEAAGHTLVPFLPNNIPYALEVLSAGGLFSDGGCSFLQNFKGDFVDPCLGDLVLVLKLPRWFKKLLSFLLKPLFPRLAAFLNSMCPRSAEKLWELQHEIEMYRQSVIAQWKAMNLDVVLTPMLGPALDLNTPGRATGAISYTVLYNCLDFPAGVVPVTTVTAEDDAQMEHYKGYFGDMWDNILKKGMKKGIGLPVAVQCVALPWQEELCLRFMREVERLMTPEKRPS

Structure (SMILES)	inhibition at 10 µM (FAAH [1]; read-out: FAAH % inh. (human) at 10 uM) [%]	inhibition at 1 µM (MAGL [2]) [%]	inhibition at 1 µM (MAGL [3]) [%]	inhibition at 1 µM (FAAH [4]) [%]	inhibition at 1 µM (FAAH [1]) [%]
O=C(O)c1ccn(C(=O)N2CCN(Cc3ccc(Cl)cc3)CC2)n1 [Example 1, 1-(4-(4-chlorobenzyl)piperazine-1-carbonyl)-1H-pyrazole-3-carboxylic Acid]	> 75	50 to 75	25 to 50	0 to 25	
O=C(O)c1ccn(C(=O)N2CCN(Cc3ccc(C(F)(F)F)cc3-c3nnco3)CC2)n1 [Example 69, 1-(4-(2-(1,3,4-oxadiazol-2-yl)-4-(trifluoromethyl)benzyl)piperazine-1-carbonyl)-1H-pyrazole-3-carboxylic acid]		> 75	> 75	0 to 25	0 to 25
CN(Cc1ccccc1Cl)[C@H]1C[C@@H]2CN(C(=O)n3ccc(C(=O)O)n3)C[C@@H]2C1 [Example 184, 1-(trans-5-((2-chlorobenzyl) (methyl)amino)octa-hydrocyclopenta[c]pyrrole-2-carbonyl)-1H-pyrazole-3-carboxylic]		0 to 25		25 to 50	
O=C(O)c1ccn(C(=O)N2CC3CN(Cc4cccc(OC(F)(F)F)c4)CC3C2)n1 (centres unmarked) [Example 117, 1-(5-(3-(trifluoromethoxy)benzyl)octahydro-pyrrolo[3,4-c]pyrrole-2-carbonyl)-1H-pyrazole-3-carboxylic acid]		50 to 75	50 to 75	50 to 75	0 to 25
NC(=O)c1ccn(C(=O)N2CCN(Cc3ccc(Cl)cc3)CC2)n1 [Example 181, 1-(4-(4-chlorobenzyl)pipera-zine-1-carbonyl)-1H-pyrazole-3-carboxamide]		> 75	> 75	> 75	> 75
CN(Cc1ccccc1Cl)[C@H]1C[C@@H]2CN(C(=O)n3ccc(C(N)=O)n3)C[C@@H]2C1 [Example 200, 1-(trans-5-((2-chlorobenzyl) (methyl)amino)octa-hydrocyclopenta[c]pyrrole-2-carbonyl)-1H-pyrazole-3-carboxamide]		> 75		> 75	
C[C@@H]1CC[C@H](C)N1c1cc(C(F)(F)F)ccc1CN1CCCC12CCN(C(=O)n1ccc(C(=O)O)n1)CC2 [Example 80, 1-(1-(2-((2R,5S)-2,5-dimethylpyrrolidin-1-yl)-4-(trifluoromethyl)benzyl)-1,8-diazaspiro[4.5]decane-8-carbonyl)-1H-pyrazole-3-carboxylic acid]				0 to 25	0 to 25
O=C(O)c1ccn(C(=O)N2CC3CN(Cc4ccc(Cl)cc4)CC3C2)n1 (centres unmarked) [Example 183, 1-(5-(4-chlorobenzyl)octa-hydropyrrolo[3,4-c]pyrrole-2-carbonyl)-1H-pyrazole-3-carboxylic acid]		25 to 50		25 to 50	
CN(Cc1ccccc1C(F)(F)F)[C@@H]1C[C@@H]2CN(C(=O)n3ccc(C(N)=O)n3)C[C@@H]2C1 [Example 204, 1-(cis-5-(methyl(2-(trifluoromethyl)benzyl)amino)octa-hydrocyclopenta[c]pyrrole-2-carbonyl)-1H-pyrazole-3-carboxamide]		> 75		> 75	
NC(=O)c1ccn(C(=O)N2CC3CN(Cc4cccc(C(F)(F)F)c4)CC3C2)n1 (centres unmarked) [Example 208, 1-(5-(3-(trifluoromethyl)benzyl)octahydro-pyrrolo[3,4-c]pyrrole-2-carbonyl)-1H-pyrazole-3-carboxamide]		> 75		> 75	
NC(=O)c1ccn(C(=O)N2CC3CN(Cc4cc(Cl)ccc4Cl)CC3C2)n1 (centres unmarked) [Example 202, 1-(5-(2,5-dichlorobenzyl)octa-hydropyrrolo[3,4-c]pyrrole-2-carbonyl)-1H-pyrazole-3-carboxamide]		> 75		> 75	
C[C@@H]1CC[C@H](C)N1c1cc(C(F)(F)F)ccc1CN(C)C1(C)CCN(C(=O)n2ccc(C(=O)O)n2)CC1 [Example 160, 1-(4-((2-((2R,5S)-2,5-dimethylpyrrolidin-1-yl)-4-(trifluoromethyl)benzyl)(methyl)amino)-4-methylpiperidine-1-carbonyl)-1H-pyrazole-3-carboxylic acid]				0 to 25	0 to 25
CN(Cc1ccccc1Cl)[C@@H]1C[C@@H]2CN(C(=O)n3ccc(C(N)=O)n3)C[C@@H]2C1 [Example 206]		> 75		> 75	
CN(Cc1ccc(C(F)(F)F)cc1)[C@@H]1C[C@@H]2CN(C(=O)n3ccc(C(N)=O)n3)C[C@@H]2C1 [Example 205, 1-(cis-5-(methyl(4-(trifluoromethyl)benzyl)amino)octa-hydrocyclopenta[c]pyrrole-2-carbonyl)-1H-pyrazole-3-carboxamide]		> 75		> 75	
NC(=O)c1ccn(C(=O)N2CCN(Cc3cccc(Oc4ccccc4)c3)CC2)n1 [Example 198, 1-(4-(3-phenoxybenzyl)pi-perazine-1-carbonyl)-1H-pyrazole-3-carboxamide]		> 75		> 75	
O=C(O)c1ccn(C(=O)N2CCN(Cc3cccc(Oc4ccccc4)c3)CC2)n1 [Example 2, 1-(4-(3-phenoxybenzyl)piperazine-1-carbonyl)-1H-pyrazole-3-carboxylic Acid]		> 75		25 to 50	
O=C(O)c1ccn(C(=O)N2CCC(Oc3cccc(Cl)c3N3CCCC3)CC2)n1 [Example 13, 1-(4-(3-Chloro-2-(pyrrolidin-1-yl)phenoxy)piperidine-1-carbonyl)-1H-pyrazole-3-carboxylic Acid]		> 75		0 to 25	
O=C(O)c1ccn(C(=O)N2CC3CN(Cc4ccc(C(F)(F)F)cc4)CC3C2)n1 (centres unmarked) [Example 96, 1-(5-(4-(trifluoromethyl)benzyl)octahydro-pyrrolo[3,4-c]pyrrole-2-carbonyl)-1H-pyrazole-3-carboxylic acid]		> 75		25 to 50	
NC(=O)c1ccn(C(=O)N2CC3CN(Cc4cc(Cl)cc(C(F)(F)F)c4)CC3C2)n1 (centres unmarked) [Example 201, 1-(5-(3-chloro-5-(trifluoromethyl)benzyl)octahydro-pyrrolo[3,4-c]pyrrole-2-carbonyl)-1H-pyrazole-3-carboxamide]		> 75		> 75	
O=C(O)c1ccn(C(=O)N2C[C@H]3C[C@H](OCc4ccccc4Cl)C[C@H]3C2)n1 [Example 15, 1-(trans-5-((2-Chlorobenzyl)oxy)octahydrocyclopenta[c]pyrrole-2-carbonyl)-1H-pyrazole-3-carboxylic Acid]				25 to 50	> 75
NC(=O)c1ccn(C(=O)N2CC3CN(Cc4ccc(N5CCOCC5)cc4C(F)(F)F)CC3C2)n1 (centres unmarked) [Example 17, 1-(5-(4-Morpholino-2-(trifluoromethyl)benzyl)octahydropyrrolo[3,4-c]pyrrole-2-carbonyl)-1H-pyrazole-3-carboxamide]		> 75		> 75	
